Test results as given in ChEMBL document CHEMBL4715778, “Sobetirome prodrug esters with enhanced blood-brain barrier permeability” (Bioorg Med Chem, 2016).

Experiments:
Type in all cases: ADME, organism-based
[1] = Prodrug conversion in C57Bl/6 mouse brain assessed as increase in sobetirome level at 1.5 micromol/kg, ip after 30 mins by LC-MS/MS analysis relative to sobetirome control; conditions: in vivo, 0.5 h, dose 1.5 µmol/kg
[2] = Ratio of AUC in brain to liver in C57Bl/6 mouse assessed as sobetirome level at 1.5 microM/Kg, ip upto 8 hrs by LC-MS/MS analysis; conditions: in vivo
[3] = AUC (0 to t) in C57Bl/6 mouse brain assessed as sobetirome level at 1.5 microM/Kg, ip upto 8 hrs by LC-MS/MS analysis; set-up: route intraperitoneal, dose 1.5 µM/Kg, time <=8; conditions: in vivo
[4] = AUC (0 to t) in C57Bl/6 mouse serum assessed as sobetirome level at 1.5 microM/Kg, ip upto 8 hrs by LC-MS/MS analysis; set-up: route intraperitoneal, dose 1.5 µM/Kg, time <=8; conditions: in vivo
[5] = AUC (0 to t) in C57Bl/6 mouse liver assessed as sobetirome level at 1.5 microM/Kg, ip upto 8 hrs by LC-MS/MS analysis; set-up: route intraperitoneal, dose 1.5 µM/Kg, time <=8; conditions: in vivo
[6] = Ratio of AUC (0 to t) in brain to liver in C57Bl/6 mouse assessed as sobetirome level at 1.5 microM/Kg, ip upto 8 hrs by LC-MS/MS analysis; conditions: in vivo
[7] = Ratio of AUC (0 to t) in brain to serum in C57Bl/6 mouse assessed as sobetirome level at 1.5 microM/Kg, ip upto 8 hrs by LC-MS/MS analysis
[8] = Ratio of AUC in brain to serum in C57Bl/6 mouse assessed as sobetirome level at 1.5 microM/Kg, ip upto 8 hrs by LC-MS/MS analysis
[9] = AUC (0 to t) in C57Bl/6 mouse brain at 1.5 microM/Kg, ip upto 8 hrs by LC-MS/MS analysis; set-up: route intraperitoneal, dose 1.5 µM/Kg, time <=8; conditions: in vivo
[10] = AUC (0 to t) in C57Bl/6 mouse serum at 1.5 microM/Kg, ip upto 8 hrs by LC-MS/MS analysis; set-up: route intraperitoneal, dose 1.5 µM/Kg, time <=8; conditions: in vivo
[11] = Half life in iv dosed mouse; conditions: in vivo
[12] = AUC (0 to t) in C57Bl/6 mouse liver at 1.5 microM/Kg, ip upto 8 hrs by LC-MS/MS analysis; set-up: route intraperitoneal, dose 1.5 µM/Kg, time <=8; conditions: in vivo
[13] = Ratio of AUC in C57Bl/6 mouse brain to liver at 1.5 microM/Kg, ip upto 8 hrs by LC-MS/MS analysis; conditions: in vivo
[14] = Ratio of AUC in C57Bl/6 mouse brain to serum at 1.5 microM/Kg, ip upto 8 hrs by LC-MS/MS analysis; conditions: read-out: Ratio AUC

Drug metabolism [1] | Structure (SMILES) | also measured
Metabolite_Notdetected | Cc1cc(OCC(=O)OCCN2CCOCC2)cc(C)c1Cc1ccc(O)c(C(C)C)c1 | –
Metabolite_Notdetected | Cc1cc(OCC(=O)OCCN(C)C)cc(C)c1Cc1ccc(O)c(C(C)C)c1 | –
Metabolite_Notdetected | Cc1cc(OCC(=O)OC2CCCNC2)cc(C)c1Cc1ccc(O)c(C(C)C)c1 (stereo not given) | –
Metabolite_Notdetected | Cc1cc(OCC(=O)Oc2ccc(C[C@H](N)C(=O)O)cc2)cc(C)c1Cc1ccc(O)c(C(C)C)c1.Cl | –
Metabolite_Notdetected | CCOC(=O)COc1cc(C)c(Cc2ccc(O)c(C(C)C)c2)c(C)c1 | –
Metabolite_Notdetected | Cc1cc(OCC(=O)OC2(C)CNC2)cc(C)c1Cc1ccc(O)c(C(C)C)c1 | –
Metabolite_Notdetected | Cc1cc(OCC(=O)OCCNC(=O)[C@@H](N)C(C)C)cc(C)c1Cc1ccc(O)c(C(C)C)c1.Cl | –
Metabolite_Notdetected | Cc1cc(OCC(=O)OC2CN(C)C2)cc(C)c1Cc1ccc(O)c(C(C)C)c1 | –
Metabolite_Notdetected | Cc1cc(OCC(=O)O)cc(C)c1Cc1ccc(O)c(C(C)C)c1 [SOBETIROME] | AUC [9]: 10.8 ng·h/g; AUC [10]: 681.7 ng·h/g; half-life [11]: 1.3 h; AUC [12]: 2933 ng·h/g; Ratio AUC [13]: 0.004; Kp at 8 h [14]: 0.02

The remaining lines, values behind:

Structure (SMILES) | Drug metabolism [1] | also measured
Cc1cc(OCC(=O)OCCN)cc(C)c1Cc1ccc(O)c(C(C)C)c1.Cl | – | fold change (FC) [2]: 4; AUC [3]: 17.1 ng·h/g; AUC [4]: 367.8 ng·h/g; AUC [5]: 1897 ng·h/g; fold change (FC) [1]: 2; Ratio AUC [6]: 0.009; Ratio AUC [7]: 0.05; fold change (FC) [8]: 7
Cc1cc(OCC(=O)OC2CCNCC2)cc(C)c1Cc1ccc(O)c(C(C)C)c1 | Metabolite_Notdetected | –
Cc1cc(OCC(=O)OC[C@H]2CCCN2)cc(C)c1Cc1ccc(O)c(C(C)C)c1 | Metabolite_Notdetected | –
Cc1cc(OCC(=O)OC[C@H]2O[C@@H](O)[C@H](O)[C@@H](O)[C@@H]2O)cc(C)c1Cc1ccc(O)c(C(C)C)c1 | Metabolite_Notdetected | –
Cc1cc(OCC(=O)OC2CNC2)cc(C)c1Cc1ccc(O)c(C(C)C)c1 | Metabolite_Notdetected | –
Cc1cc(OCC(=O)OCCNC(=O)[C@@H](N)CCCCN)cc(C)c1Cc1ccc(O)c(C(C)C)c1.Cl.Cl | Metabolite_Notdetected | –
Cc1cc(OCC(=O)OCC2CCCCN2)cc(C)c1Cc1ccc(O)c(C(C)C)c1 (stereo not given) | Metabolite_Notdetected | –
Cc1cc(OCC(=O)OCC[N+](C)(C)C)cc(C)c1Cc1ccc(O)c(C(C)C)c1.[Br-] | Metabolite_Notdetected | –
